The structures appear in SMILES notation. “Also recorded” adds a separate entry of the source.

Consider three compounds from US20260240792A1, “COMPOSITIONS FOR TREATING 5-HT2 CONDITIONS AND METHODS OF USING THE SAME” (Board of Supervisors of Louisiana State University and …, priority 2022, published 2026).

Data set [1] can be described thus: Solubility in ophthalmic eye drop (BSS, 0.5% CMC). It counts as physicochemical. The following applies: 0.1% (5 mg/5 mL) in BSS with 0.5% CMC, pH 7.0. The procedure:
Non-Limiting, Exemplary Findings Discussed within: • The NCE Compound 1 was formulated within an ophthalmic eye drop with BSS and 0.5% carboxymethylcellulose (CMC) at percentages of 0.1% (5 mg/5 ml) and lower with a pH of 7.0.
• The R-DOI HCl was formulated within an ophthalmic eye drop with BSS and 0.5% carboxymethylcellulose (CMC) at percentages of 0.1% (5 mg/5 mL) and lower with a pH of 7.0.

Data set [2] concerns rabbits. Description: Tear film production by Schirmer's Tear Flo Strips in rabbits. It counts as in vivo, rabbit. On the procedure: Each eye of each rabbit was assessed for tear film production by Schirmer's Tear Flo Strips at a 30 second interval of analysis. Tear measures were evaluated by a digital caliper to determine mm of tears collected.
(§1) 3 days post treatment at the same time initial measures were made, IOP and tear film production were re-assessed to examine if effects were sustained post 1 treatment.
Effects of Compound 1 on Tear Production: Current IOP lowering glaucoma drugs eventually have effects on tear production resulting in dry eye conditions. Further, there are additional associations between dry eye and glaucoma, with co-incidence of the two conditions quite common. […] Selective 5-HT agonists/antagonists can reverse symptoms of dry eye-a very large ophthalmic market. The effects of Compound 1 on tear film production (see, for example, FIG. 6 panels A-D) were therefore assessed by a Schirmer's Tear Flo strip and measured using a digital micrometer caliper.
(§2) • Rabbits were assessed for clinically clear eyes by slit lamp ophthalmic scoring. All eyes of all rabbits were normal. • Each eye of each rabbit was then assessed for initial IOP by tonometer. • Each eye of each rabbit was assessed for tear film production by Schirmer's Tear Flo Strips at a 30 second interval of analysis. Tear measures were evaluated by a digital caliper to determine mm of tears collected. • Rabbits were sorted into two groups attempting to balance IOP numbers (one higher, one lower animal per group). • Following animals were treated with 50 μL of Control ophthalmic BSS/0.5% CMC or 0.01% R-DOI HCl in ophthalmic BSS/0.5% CMC. • Any apparent behavioral changes were continuously monitored over the next 2.5 hours. • IOP determinations were made at 30 minutes, 1 hour, 2 hours and 3 hours, 5 hours, 7 hours and 24 hours-eyes were examined closely for any adverse effects during these IOP measures. • 7 hours post treatment when IOP returned to control levels tear film production was assessed (see, for example, FIG. 9).
Effects of R-DOI on Tear Production: Current IOP lowering glaucoma drugs eventually have effects on tear production resulting in dry eye conditions. Further, there are additional associations between dry eye and glaucoma, with co-incidence of the two conditions common. […] Selective 5-HT agonists/antagonists can reverse symptoms of dry eye-a very large ophthalmic market. The effects of R-DOI on tear film production were therefore assessed by a Schirmer's Tear Flo strip and measured using a digital micrometer caliper.

Data set [3] deals with rabbits. Description: Intraocular pressure (IOP) after topical ocular dosing in rabbits. It counts as in vivo, rabbit. On the procedure:
The IOP was assessed as a component of clinical outcomes for the animals in the studies described herein. The table below represents the effect of R-DOI on IOP 2 hours after dosing with the indicated concentration of R-DOI. Eyes were individually assessed and are indicated as IOP for the right (OD) or left (OS) eye.
Each eye of each rabbit was then assessed for initial IOP by tonometer.
IOP determinations were made at 30 minutes, 1 hour, 1.5 hours and 2.5 hours-eyes were examined closely for any adverse effects during these IOP measures.
as §1
The IOP was assessed via a TonoVet rebound Tonometer. The tables herein (see, for example, FIG. 4) represent the effect of Compound 1 on IOP at time intervals within the first 2.5 hours after dosing with 0.01% Compound 1 in BSS with 0.5% CMC. Eyes were individually assessed and are indicated as IOP for the right (OD) or left (OS) eye. 3 days post treatment eyes were reassessed for IOP changes to see if the effects of treatment lasted over a prolonged period.
as §2
The IOP was assessed via a TonoVet rebound Tonometer. The tables herein (see, for example, FIGS. 10-11) represents the effect of R-DOI on IOP at the defined time intervals Eyes were individually assessed and are indicated as IOP for the right (OD) or left (OS) eye.

Data set [4] concerns rabbits. Description: Topical ocular dosing in rabbits: observation of CNS, systemic, ocular and behavioral effects, ocular tolerability. It counts as in vivo, rabbit. The following applies: 0.01%. On the procedure: Apparent Ocular Irritability • b. Induction of Inflammation • c. Reduction of Corneal Barrier Integrity • d. Dry Eye or Excessive Tearing • e. Induction of Neovascularization • f. Induction of Scleral Reddening
Parameters Assessed during 2 hour Observation Window (see, for example, FIG. 1):
Two studies were performed to determine at what dose between 0.01% and 0.1% were behavioral and/or systemic effects observed. 50 μL doses at 0.01%, 0.05%, and 0.075% per eye applied and assessments were made as indicated herein.
The application of most topical eye drops requires repeatedly dosing up to 9 times per day in order to maintain efficacy across the course of waking hours and have efficacious levels available during sleeping hours. The effects of repeated ocular dosing of R-DOI were assessed in a similar manner as described herein, with the exception that doses of 0.01% or 0.05% were applied repeatedly as outlined herein:
Animals from the acute dosing were continued through the repeated dosing study. Animals were dosed at the indicated concentration 2 times on day 1 and then dosed 4 times per day for 3 subsequent days. Doses were administered at 50 μl per eye into both eyes of the animal.
Rabbits were assessed for clinically clear eyes by slit lamp ophthalmic scoring. All eyes of all rabbits were normal.
Following balancing animals were treated with 50 μL of Control ophthalmic BSS/0.5% CMC or 0.01% Compound 1 in ophthalmic BSS/0.5% CMC.
Any behavioral changes were continuously monitored over the next 2.5 hours (FIG. 3).
We can determine if a single dose of the ocular composition of 0.01% R-DOI with 0.5% carboxymethylcellulose in ophthalmic BSS: • 1. Reproduced previous findings that R-DOI had IOP depressing effects. • 2. Produced any readily observable behavioral effects. • 3. Was tolerated by the eye without adverse ocular effects, including absence of: • a. Apparent Ocular Irritability • b. Induction of Inflammation • c. Dry Eye or Excessive Tearing • d. Induction of Scleral Reddening • 4. Reduced IOP • 5. Maintained Reduction in IOP • 6. Increased Tear Film Production
as §2

A further data set relates to C6 glioma cells. As to conditions: cocktail of TNF-α and INF-γ, read-out: IC50 for block of LPS and cytokine stimulated nitrite accumulation; cited from earlier work.
Another data set concerns Normal Human Fibroblasts. Description: TGF-β transformation of normal human fibroblasts to myofibroblasts. It counts as cell-based. The following applies: TGF-β treated human fibroblasts.
The test system of data set [5] is TGF-Induced SMAD-mediated signaling. The data set can be described thus: TGF-β induced SMAD-mediated signaling, dual luciferase reporters. It counts as cell-based.
In the next data set the target is 5-HT2A receptors (Homo sapiens, UniProt P28223). As to conditions: cited from earlier work.
Sequence of 5-HT2A receptors (P28223 whole entry): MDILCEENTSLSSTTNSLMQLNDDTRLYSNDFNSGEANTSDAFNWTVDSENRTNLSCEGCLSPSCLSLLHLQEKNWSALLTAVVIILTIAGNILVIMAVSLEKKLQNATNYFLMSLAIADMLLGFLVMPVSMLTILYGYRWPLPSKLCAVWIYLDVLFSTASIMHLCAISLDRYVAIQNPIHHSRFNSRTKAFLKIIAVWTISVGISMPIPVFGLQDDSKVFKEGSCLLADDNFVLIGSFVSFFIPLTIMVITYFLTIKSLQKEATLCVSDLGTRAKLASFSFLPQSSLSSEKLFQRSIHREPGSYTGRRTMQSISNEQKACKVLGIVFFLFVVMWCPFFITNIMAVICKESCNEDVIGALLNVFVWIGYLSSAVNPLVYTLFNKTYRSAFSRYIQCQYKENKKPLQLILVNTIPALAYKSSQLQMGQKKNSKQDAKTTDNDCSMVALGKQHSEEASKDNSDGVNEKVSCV

In the case of `COc1cc(CC(C)C)c(OC)cc1CCN` [Compound 1], the “Solubility of the compound” value in data set [1] is “good with no remaining precipitates”. Further, the “average increase in tear film production” value in the data set on rabbits [2] (0.01% single dose, 2.5 h post treatment) amounted to 3.4 mm. For the same compound, in the data set on rabbits [2] (0.01% single dose, 3 days post treatment), the “average increase of tear film” value is “approximately 1.9 mm”. The “tear production as measured by Schirmer's test” value in the data set with rabbits [2] (topical ocular dose) is given as “increased tear production; also recorded: significant increase in tear production”. For the same compound, in the data set on rabbits [3] (0.01% single dose, non-diseased eye model), the “period for which decreased intraocular pressure was sustained post administration” value is “at least 3 days”. Also, in the data set on rabbits [3] (0.01% single dose, 30 minutes, 1 hour, 1.5 hours, 2.5 hours), the “IOP across the 2.5 hour observation window” value is reported as “decreased IOP at all points across the 2.5 hour observation window”. Further, the “Return to Baseline IOP” value in the data set with rabbits [3] (post single dose administration of 0.01%) was “approximately 12 days”. In addition, the “effect on intraocular pressure” value in the data set on rabbits [3] (single topical ocular dose) is listed as “decreased intraocular pressure with a single dose”. Moreover, in the data set on rabbits [4] (50 μL per eye, both eyes, single dose), the “adverse events (ocular, systemic, behavioral or otherwise)” value was “No readily apparent adverse events; also recorded: No observable changes; also recorded: no adverse or abnormal events observed”. In the data set on rabbits [4] (acute single dosing), the “acute ocular toxicity, irritability or adverse ocular reactions” value is given as “did not exhibit any acute ocular toxicity, irritability or adverse ocular reactions; also recorded: did not display any signs of ocular irritability”.
Turning to `COc1cc(CC(C)N)c(OC)cc1I` (centres unmarked) [DOI, 2,5-Dimethoxy-4-iodoamphetamine], the IC50 in the data set with C6 glioma cells is 8 ± 3 nM. Also, in the data set with Normal Human Fibroblasts, the “Transformation into Myofibroblasts” value is “Prevents Transformation into Myofibroblasts”. Also, the “TGF-Induced SMAD-mediated signaling” value in data set [5] is “Reduces TGF-Induced SMAD-mediated signaling”.
In the case of `O=C(c1ccc(F)cc1)C1CCN(CCn2c(=O)[nH]c3ccccc3c2=O)CC1` [ketanserin], the “selectivity for 5-HT2A receptors over 5-HT2C receptors” value on 5-HT2A receptors is ~ 20 fold.
